Measurements as given in patent US6596309B2, “Stable pharmaceutical dosage form for paroxetin anhydrate” (BASF Aktiengesellschaft, priority 1999, dated 2003).

Experiment: Check for conversion of the anhydrate to the hemihydrate in soft gelatin capsules (infrared spectroscopy or DSC)
Assay type: physicochemical
Conditions: paroxetin anhydrate incorporated into soft gelatin capsules; lipophilic carrier silicone oil
Description: The incorporation of paroxetin anhydrate into soft gelatin capsules was surprising because soft gelatin contains very large amounts of water during the encapsulation process. […] However, the use of glycerol in the preparation of the capsule coat should be avoided.
A test for absence of the hemihydrate can be performed very simply by infrared spectroscopy or differential scanning calorimetry (DSC), as described by P.C. Baxter et al. in the International Journal of Pharmaceutics, 42 (1988), pages 135 to 143.

## Fc1ccc([C@@H]2CCNC[C@H]2COc2ccc3c(c2)OCO3)cc1 (relative stereo) [paroxetin anhydrate, (—)-trans-4-(4′-fluorophenyl)-3-(3′,4′-methylenedioxyphenoxymethyl)-piperidine]
  conversion to the hemihydrate: did not occur
